Assay [1] relates to Pax4. The assay can be described thus: Pax4 transcription in INS-1E insulinoma cells, quantitative RT-PCR. The note with it: INS-1E cells. The assay is classed as cell-based, rat. An excerpt:
The response of the Pax4 gene to test compounds was investigated in the rat insulinoma cell line INS-1E. INS-1E cells are known to express Pax4 and to upregulate Pax4 levels in response to the treatment with activin-A and betacellulin. In the search for novel beta cell mitogens and/or beta cell protective agents the inventors treated INS-1E cells with different test compounds.
(§1) Total RNA from 8×10^4 cells growing on 4 cm^2 surface area of a tissue culture dish was extracted using Qiagen RNAeasy kit according to the instructions of the manufacturer (Qiagen) and 2 μg was converted into cDNA. Primers for pax4, 18S RNA, and rat RNA polymerase II largest subunit (RPB1) were designed using the Primer Express 1.5 Software from Applied Biosystems and sequences can be obtained upon request. Quantitative real-time PCR was performed using Applied Biosystems SDS 7000 detection system. Amplifications from 2 independent experiments were performed in duplicate for each transcript and mean values were normalized to the mean value of the reference RNA 18S RNA.
Cells were seeded at a density of 2×10^4 cells per cm^2 6 to 8 days before the treatment with chemicals. During the growth period the medium was changed once. The cells were incubated for different periods of time with chemicals under serum-free conditions. The cells were harvested in Qiagen RNAeasy cell lysate buffer and immediately transferred to dry ice. The samples were stored at −20° C. until RNA isolation was carried out.
Cells were seeded at a density of 2×10^4 cells per cm^2 6 to 8 days before the treatment with chemicals. During the growth period the medium was changed once. The cells were incubated for different periods of time with chemicals under serum-free conditions. The cells were harvested in Qiagen RNA easy cell lysate buffer and immediately transferred to dry ice. The samples were stored at −20 degree until RNA isolation was carried out.

Another assay has as its system Pax4 promoter. The assay can be described thus: Cellular HTS-Pax4 screening assay (Capan-1 pKS-Pax-4-LUC luciferase reporter). The assay is classed as cell-based, human. Conditions: Capan-1 pKS-Pax-4-LUC clone18; compound 10 μM with Trichostatin A 0.75 μM; 30 hour. From the text: To perform high throughput screening for compounds that are either directly or indirectly capable of switching on Pax4 expression, a Pax4 reporter gene assay was established. Therefore, cDNA constructs containing a luciferase reporter gene under the control of the Pax4 promoter with the complete Pax4 gene locus were introduced into the human pancreatic duct cell line CAPAN-1.
Generation of stable Cell Lines and Drug Selections Capan-1 human pancreatic duct cell line ([HBT-79], purchased from American Type Culture Collection (ATCC), referred to as Capan-1 herein) were grown in high glucose DMEM [Gibco Cat. No. 61965-026] containing 10% FBS [Gibco Cat. No. 10270-106] at 37° C. under an atmosphere of 5% CO2. The Pax-4-reporter gene construct (referred to as pKS-Pax-4-LUC)— a cDNA construct containing a luciferase reporter (LUC) gene under the control of the Pax4 promoter with the complete Pax4 gene locus were cloned into the plasmid pBlueskript ks (FIG. 5). […]
Capan-1, stably transfected with pKS-Pax-4-LUC (clone18), cultivated without G418 for 4 day's, were plated at a density of 1×10^4 cells per 96 well plate [Greiner, LIA plate white, Cat. No. 655083] in 100 μl DMEM containing 10% (v/v) FBS without G418 and grown for 24 hour. […] The luminescence was measured within 15 minutes after reagent addition for maximum sensitivity.
In general terms: Reporter assays use an easily measured gene product as a stand-in for the process of interest.

For assay [2], the system named is Pax4. The assay can be described thus: Pax4 expression in small intestine and colon.
In assay [3] the test system is Pax4. The assay can be described thus: Pax4 expression in human islets. In kind it is cell-based. Conditions: 5 μM, 48 h. The procedure: FIG. 2 illustrates relative Pax4 expression in untreated human islets and human islets, treated with 5 μM Kenpaullone (KP) for 48 h.
Further, human islets were treated with 5 μM Kenpaullone for 48 h. The treated islets show a 10-15 fold expression of Pax4 compared to untreated pancreatic islets.

Another assay concerns minimal CMV promotor. The assay can be described thus: Counter screen assay (Capan-1-pCMVmin-LUC-54 cells). The assay is classed as cell-based, human. Conditions: compound 10 μM with Trichostatin A 0.75 μM, 30 hour. As for the experimental part: Generation of stable Cell Lines and Drug Selections Capan-1 human pancreatic duct cell line ([HBT-79], purchased from American Type Culture Collection (ATCC), referred to as Capan-1 herein) were grown in high glucose DMEM [Gibco Cat. No. 61965-026] containing 10% FBS [Gibco Cat. No. 10270-106] at 37° C. under an atmosphere of 5% CO2. The Pax-4-reporter gene construct (referred to as pKS-Pax-4-LUC)— a cDNA construct containing a luciferase reporter (LUC) gene under the control of the Pax4 promoter with the complete Pax4 gene locus were cloned into the plasmid pBlueskript ks (FIG. 5). The Minimal CMV reporter gene construct (referred to as pCMVmin-LUC): a fire fly luciferase reporter gene (LUC) under the control of a minimal CMV promotor (56 bp) was cloned into pcDNA3.1 plasmid (without promotor) (FIG. 6).
Stable transfected Capan-1-pCMVmin-LUC-54 cells, cultivated without G418 for 4 day's, were plated at a density of 4×10^4 cells per 96 well plate [Greiner, LIA plate white, Cat. No. 655083] in 100 μl DMEM containing 10% (v/v) FBS and grown for 24 hour. Cells were starved by serum starvation for 16 hour in 8511 medium without FBS [DMEM(Cat. No. 25030-024) containing 5% L-glutamine]. […] The luminescence was measured within 15 minutes after reagent addition for maximum sensitivity.

Assay [4] deals with human Pax4 promoter. The assay can be described thus: Pax4 reporter gene assay in INS-1-cl.-3.5 cells. The assay is classed as cell-based, rat. The note with it: INS-1-cl.-3.5 or INS-1-cl.-9 cells; FIG. 18, FIG. 19. The procedure: (§2) INS-1E cell lines were grown as described below. The Pax-4-reporter gene construct (referred to as pKS-Pax-4-LUC), a cDNA construct containing a firefly luciferase reporter (LUC) gene under the transcriptional control of human Pax4 promoter sequences and the nearly complete human Pax4 gene locus (cf. FIG. 5A) was cloned into the plasmid pBluescript ks.
(§3) Adherent INS-1E cells were transfected using Lipofectamine 2000 (Invitrogen) according to the protocol provided by the supplier. The transfected cells were treated with media containing 400 μg/ml G418 Sulfate (e.g. Geneticin from Gibco; Cat. No. 11811-098), a selection agent for eukaryotic cells, 24 to 48 hours after the transfection. To establish independent stable cell lines, cell colonies which occurred 2 to 6 weeks after the transfection were individually transferred to new culture dishes and then propagated like untransfected INS-1E cells, but in the presence of G418 Sulfate.
(§4) For the identification and/or characterization of beta-cell mitogens a Pax4 reporter gene assay has been established. […]
(§5) Luciferase activity that can be quantified using appropriate imaging systems reflects the activation status of the human Pax4 promoter. […]

The test system of assay [5] is RNA polymerase II largest subunit (RPB1). The assay can be described thus: Expression of unrelated gene RPB1 in INS-1E cells, quantitative RT-PCR. In kind it is cell-based, rat.
Description: The response of the Pax4 gene to mitogens was investigated in the rat insulinoma cell line INS-1E. INS-1E cells are known to express Pax4 and to upregulate Pax4 levels in response to the treatment with activin-A and betacellulin (Ueda (2000), supra, Li et al. (2004) supra, Brun et al. (2004), supra). In the search for novel beta-cell mitogens the inventors treated INS-1E cells with proteins related to activin A or betacellulin. […] The Pax4 RNA expression level was normalized to this of 18S RNA. The level of the unrelated gene RNA polymerase II largest subunit (RPB1) was unaffected by activin B treatment.
as §1
INS-1E cells were cultured as described (Merglen, (2004) Endocrinology; 145: 667-678). […]

Assay [6] has as its system human Pax4 promoter. The assay can be described thus: Pax4 reporter gene assay in INS-1-cl-1.5 cells. The assay is classed as cell-based, rat. The procedure:
as §2, §3, §4, §5

For the molecule `O=C1Cc2c([nH]c3ccc(Br)cc23)-c2ccccc2N1` [Kenpaullone, 9-Bromo-7,12-dihydro-indolo[3,2-d][1]benzazepin-6(5H)-one], the “induction of relative Pax4 expression compared to the control” value in the assay on Pax4 [1] (20 μM) was 8 fold. In addition, the “Pax4 gene transcription over time (in words)” value in the assay with Pax4 [1] (20 μM, FIG. 1) is “transiently induces Pax4 gene transcription”. Further, in the assay on Pax4 promoter, the “induction of luciferase activity” value was 6 fold. For the same molecule, the “effect on Pax4 expression in small intestine and colon” value in the assay with Pax4 [2] is reported as “No effect”. The “expression of Pax4 compared to untreated pancreatic islets” value with Pax4 [3] is 10-15 fold. Further, the “induction in the counterscreen” value with minimal CMV promotor worked out at 1.2 fold.
For the molecule TGF-beta 1: Activin related protein, in the assay on human Pax4 promoter [4], the “Pax4 reporter response of clone (in words)” value was “does not effect Pax4 transcription”.

B1: activin B: protein related to activin A (protein, UniProt P09529 293-407, looked up)
Inhibin beta B chain: GLECDGRTNLCCRQQFFIDFRLIGWNDWIIAPTGYYGNYCEGSCPAYLAGVPGSASSFHTAVVNQYRMRGLNPGTVNSCCIPTKLSTMSMLYFDDEYNIVKRDVPNMIVEECGCA
modifications: Inhibin beta B chain
Take B1: the “increase in Pax4 levels (maximal Pax4 induction)” value in the assay on Pax4 [1] (1 nM) was around 7.5 fold. Besides, in the assay on Pax4 [1] (FIG. 16), the “stimulation of Pax4 transcription relative to activin A (in words)” value is recorded as “almost equally potent in stimulating Pax4 transcription as activin A”. In addition, the “level of RNA polymerase II largest subunit (RPB1)” value in assay [5] is “unaffected”.

B2: Activin: Activin; figures 18 and 19 name activin-A (protein, UniProt P08476 311-426, looked up)
Inhibin beta A chain: GLECDGKVNICCKKQFFVSFKDIGWNDWIIAPSGYHANYCEGECPSHIAGTSGSSLSFHSTVINHYRMRGHSPFANLKSCCVPTKLRPMSMLYYDDGQNIIKKDIQNMIVEECGCS
modifications: Inhibin beta A chain
With B2, the “Pax4 reporter response of clone (in words)” value with human Pax4 promoter [6] is on record as “does not react to Activin stimulation”; with human Pax4 promoter [4] it was “react to Activin treatment”.
